#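 Following 48 hours of exposure in 96-well plates, responses at five concentrations were used to interpolate endpoints linearly. TGI: concentration producing complete growth inhibition.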
# Key:
# Experiment in all cases: DTP human tumour cell line panel, 48 h
# SK-MEL-28 melanoma = test system: SK-MEL-28 melanoma
# U251 CNS = test system: U251 CNS
# DU-145 prostate = test system: DU-145 prostate
# SF-268 CNS = test system: SF-268 CNS
# HCC-2998 colon = test system: HCC-2998 colon
# OVCAR-4 ovarian = test system: OVCAR-4 ovarian
# NCI-H226 lung = test system: NCI-H226 lung
# LOX IMVI melanoma = test system: LOX IMVI melanoma
# EKVX NSCLC = test system: EKVX NSCLC
# PC-3 prostate = test system: PC-3 prostate
# HCT-15 colon = test system: HCT-15 colon
# RXF 393 renal = test system: RXF 393 renal
# 786-0 renal = test system: 786-0 renal
# SN12C renal = test system: SN12C renal
# IGROV1 ovarian = test system: IGROV1 ovarian
# OVCAR-3 ovarian = test system: OVCAR-3 ovarian
# SNB-19 CNS = test system: SNB-19 CNS
# HOP-62 NSCLC = test system: HOP-62 NSCLC
# BT-549 breast = test system: BT-549 breast
# NCI-H460 lung = test system: NCI-H460 lung
# A549 NSCLC = test system: A549 NSCLC
# UACC-257 melanoma = test system: UACC-257 melanoma
# T-47D breast = test system: T-47D breast
# HCT-116 colon = test system: HCT-116 colon
# HS 578T breast = test system: HS 578T breast
# MDA-N = test system: MDA-N
# MOLT-4 leukemia = test system: MOLT-4 leukemia
# COLO 205 colon = test system: COLO 205 colon
# CCRF-CEM leukemia = test system: CCRF-CEM leukemia
# K-562 leukemia = test system: K-562 leukemia
# HOP-92 NSCLC = test system: HOP-92 NSCLC
# OVCAR-8 ovarian = test system: OVCAR-8 ovarian
# ACHN renal = test system: ACHN renal
# UACC-62 melanoma = test system: UACC-62 melanoma
# MDA-MB-231 breast = test system: MDA-MB-231 breast
# TK-10 renal = test system: TK-10 renal
# RPMI-8226 leukemia = test system: RPMI-8226 leukemia
# A498 renal = test system: A498 renal
# SK-OV-3 ovarian = test system: SK-OV-3 ovarian
# MDA-MB-435 = test system: MDA-MB-435
# SF-295 CNS = test system: SF-295 CNS
# KM12 colon = test system: KM12 colon
# OVCAR-5 ovarian = test system: OVCAR-5 ovarian
# MALME-3M melanoma = test system: MALME-3M melanoma
# HL-60(TB) leukemia = test system: HL-60(TB) leukemia
# SNB-75 CNS = test system: SNB-75 CNS
# NCI-H23 lung = test system: NCI-H23 lung
# M14 melanoma = test system: M14 melanoma
# CAKI-1 renal = test system: CAKI-1 renal
# SW-620 colon = test system: SW-620 colon
# SR leukemia = test system: SR leukemia
# UO-31 renal = test system: UO-31 renal
# HT29 colon = test system: HT29 colon
# SF-539 CNS = test system: SF-539 CNS
# NCI/ADR-RES ovarian = test system: NCI/ADR-RES ovarian
# SK-MEL-2 melanoma = test system: SK-MEL-2 melanoma
# NCI-H522 lung = test system: NCI-H522 lung
# SK-MEL-5 melanoma = test system: SK-MEL-5 melanoma
# MCF7 breast = test system: MCF7 breast
compound,measurement,setting,value
CCCC(=O)NC(Nc1ccc(S(=O)(=O)Nc2ccc(OC)nn2)cc1)(C(F)(F)F)C(F)(F)F,TGI,SK-MEL-28 melanoma,> 100 µM
same,TGI,U251 CNS,> 100 µM
same,TGI,DU-145 prostate,> 100 µM
same,TGI,SF-268 CNS,> 100 µM
same,TGI,HCC-2998 colon,> 100 µM
same,TGI,OVCAR-4 ovarian,> 100 µM
same,TGI,NCI-H226 lung,> 100 µM
same,TGI,LOX IMVI melanoma,> 100 µM
same,TGI,EKVX NSCLC,> 100 µM
same,TGI,PC-3 prostate,> 100 µM
same,TGI,HCT-15 colon,> 100 µM
same,TGI,RXF 393 renal,> 100 µM
same,TGI,786-0 renal,> 100 µM
same,TGI,SN12C renal,> 100 µM
same,TGI,IGROV1 ovarian,> 100 µM
same,TGI,OVCAR-3 ovarian,> 100 µM
same,TGI,SNB-19 CNS,> 100 µM
same,TGI,HOP-62 NSCLC,> 100 µM
same,TGI,BT-549 breast,> 100 µM
same,TGI,NCI-H460 lung,> 100 µM
same,TGI,A549 NSCLC,> 100 µM
same,TGI,UACC-257 melanoma,> 100 µM
same,TGI,T-47D breast,> 100 µM
same,TGI,HCT-116 colon,> 100 µM
same,TGI,HS 578T breast,> 100 µM
same,TGI,MDA-N,> 100 µM
same,TGI,MOLT-4 leukemia,> 100 µM
same,TGI,COLO 205 colon,> 100 µM
same,TGI,CCRF-CEM leukemia,> 100 µM
same,TGI,K-562 leukemia,> 100 µM
same,TGI,HOP-92 NSCLC,> 100 µM
same,TGI,OVCAR-8 ovarian,> 100 µM
same,TGI,ACHN renal,> 100 µM
same,TGI,UACC-62 melanoma,> 100 µM
same,TGI,MDA-MB-231 breast,> 100 µM
same,TGI,TK-10 renal,> 100 µM
same,TGI,RPMI-8226 leukemia,> 100 µM
same,TGI,A498 renal,> 100 µM
same,TGI,SK-OV-3 ovarian,> 100 µM
same,TGI,MDA-MB-435,> 100 µM
same,TGI,SF-295 CNS,> 100 µM
same,TGI,KM12 colon,> 100 µM
same,TGI,OVCAR-5 ovarian,> 100 µM
same,TGI,MALME-3M melanoma,> 100 µM
same,TGI,HL-60(TB) leukemia,> 100 µM
same,TGI,SNB-75 CNS,> 100 µM
same,TGI,NCI-H23 lung,> 100 µM
same,TGI,M14 melanoma,> 100 µM
same,TGI,CAKI-1 renal,> 100 µM
same,TGI,SW-620 colon,> 100 µM
same,TGI,SR leukemia,> 100 µM
same,TGI,UO-31 renal,> 100 µM
same,TGI,HT29 colon,> 100 µM
same,TGI,SF-539 CNS,> 100 µM
same,TGI,NCI/ADR-RES ovarian,> 100 µM
same,TGI,SK-MEL-2 melanoma,> 100 µM
same,TGI,NCI-H522 lung,> 100 µM
same,TGI,SK-MEL-5 melanoma,> 100 µM
COc1ccc(C(=O)/C=C/c2ccc(OCC(=N)N)cc2)cc1,TGI,SK-MEL-28 melanoma,28.6 µM
same,TGI,U251 CNS,27.7 µM
same,TGI,DU-145 prostate,25.4 µM
same,TGI,SF-268 CNS,35.6 µM
same,TGI,HCC-2998 colon,30.4 µM
same,TGI,OVCAR-4 ovarian,30.5 µM
same,TGI,NCI-H226 lung,34.1 µM
same,TGI,EKVX NSCLC,30.8 µM
same,TGI,PC-3 prostate,27.9 µM
same,TGI,HCT-15 colon,31.7 µM
same,TGI,RXF 393 renal,28.3 µM
same,TGI,786-0 renal,29.9 µM
same,TGI,SN12C renal,26.7 µM
same,TGI,IGROV1 ovarian,40.8 µM
same,TGI,OVCAR-3 ovarian,27.5 µM
same,TGI,SNB-19 CNS,29.2 µM
same,TGI,HOP-62 NSCLC,29.9 µM
same,TGI,BT-549 breast,31.7 µM
same,TGI,A549 NSCLC,33.1 µM
same,TGI,UACC-257 melanoma,38.1 µM
same,TGI,T-47D breast,26.5 µM
same,TGI,MCF7 breast,26.8 µM
same,TGI,HCT-116 colon,16.7 µM
same,TGI,HS 578T breast,34.9 µM
same,TGI,MDA-N,31.4 µM
same,TGI,MOLT-4 leukemia,30.9 µM
same,TGI,COLO 205 colon,28.6 µM
same,TGI,CCRF-CEM leukemia,25.7 µM
same,TGI,K-562 leukemia,20.1 µM
same,TGI,HOP-92 NSCLC,28.5 µM
same,TGI,OVCAR-8 ovarian,37.3 µM
same,TGI,ACHN renal,31.9 µM
same,TGI,UACC-62 melanoma,29 µM
same,TGI,MDA-MB-231 breast,27.8 µM
same,TGI,TK-10 renal,38.9 µM
same,TGI,A498 renal,27.9 µM
same,TGI,SK-OV-3 ovarian,25.5 µM
same,TGI,MDA-MB-435,36.8 µM
same,TGI,SF-295 CNS,30 µM
same,TGI,KM12 colon,25.8 µM
same,TGI,OVCAR-5 ovarian,83.9 µM
same,TGI,MALME-3M melanoma,32 µM
same,TGI,SNB-75 CNS,20.3 µM
same,TGI,NCI-H23 lung,43.3 µM
same,TGI,M14 melanoma,32.6 µM
same,TGI,SW-620 colon,14.7 µM
same,TGI,SR leukemia,25.9 µM
same,TGI,UO-31 renal,34.1 µM
same,TGI,HT29 colon,28.8 µM
same,TGI,SF-539 CNS,29.6 µM
same,TGI,NCI/ADR-RES ovarian,72 µM
same,TGI,SK-MEL-5 melanoma,33.1 µM

# Source: PubChem BioAssay (NCI)
